In patent US20240016718A1 (priority 2020, published 2024):
“And” between values parts separate entries of the source, which are not always exact repeats. Equal entries are not always repeated.

Legend:
[1] = system: sebaceous lipids in sebum (fatty acid, squalene, cholesterol, wax esters, cholesteryl ester); parameters: species or system Rhino mice (RHJ/LeJ); conditions: mouse, in vivo
Substance P = system: Substance P; parameters: species or system Rhino mice (RHJ/LeJ); conditions: mouse, in vivo
IL-1 alpha = system: IL-1 alpha; parameters: species or system Rhino mice (RHJ/LeJ); conditions: mouse, in vivo
sebaceous glands = system: sebaceous glands; parameters: species or system Rhino mice (RHJ/LeJ); conditions: mouse, in vivo
utriculi = system: utriculi; parameters: species or system Rhino mice (RHJ/LeJ); conditions: mouse, in vivo
keratinocytes = system: keratinocytes; parameters: species or system Rhino mice (RHJ/LeJ); conditions: mouse, in vivo
fibroblasts = system: fibroblasts; parameters: species or system Rhino mice (RHJ/LeJ); conditions: mouse, in vivo
sebocytes = system: sebocytes; parameters: species or system Rhino mice (RHJ/LeJ); conditions: mouse, in vivo
back skin of Rhino mice = conditions: Rhino (RHJ/LeJ), mouse, in vivo
epidermis (back skin) = conditions: Rhino (RHJ/LeJ), mouse, in vivo
[2] = system: dermis (inflammatory infiltrate); conditions: Rhino (RHJ/LeJ), mouse, in vivo
dorsal skin = conditions: Rhino (RHJ/LeJ), mouse, in vivo

Structure (SMILES): COc1ccc(-c2ccc3cc(C(=O)O)ccc3c2)cc1C12CC3CC(CC(C3)C1)C2 [Adapalene]
- Induction of increased excretion of fatty acid to the epidermis [1]: did not
- Substance P concentration in back skin (Substance P): 335.5 pg/g tissue and 414.1 pg/g tissue and 453.4 pg/g tissue and 409.8 pg/g tissue and 403.9 pg/g tissue and 491.3 pg/g tissue
- Decrease of IL-1 alpha level versus vehicle (IL-1 alpha): 96%
- IL-1 alpha Concentration (IL-1 alpha): 50.4 ng/g tissue and 40.3 ng/g tissue and 45.1 ng/g tissue and 47.8 ng/g tissue and 69.3 ng/g tissue and 36.4 ng/g tissue
- IL-1 alpha level in back skin (mean±SD) (IL-1 alpha): 47.7±11.5 ng/g tissue
- Increase of sebaceous glands surface versus vehicle group (sebaceous glands): +82%
- Decrease in the surface area of the utriculi (utriculi): 94%
- utriculi surface (utriculi): 515.3 μm^2 and 545.4 μm^2 and 585.7 μm^2 and 515.2 μm^2 and 806.1 μm^2 and 527.4 μm^2 and 605.0 μm^2
- Increase of Ki67 positive cells in epidermis (keratinocytes) (keratinocytes): 30%
- Ki67 positive cells per mm^2 (keratinocytes): 4411.7 cells per mm^2 and 4260.9 cells per mm^2 and 4248.9 cells per mm^2 and 3981.7 cells per mm^2 and 4121.7 cells per mm^2 and 4733.8 cells per mm^2
- Increase of Ki67 positive cells in dermis (fibroblasts) (fibroblasts): 43%
- Ki67 positive cells per mm^2 (fibroblasts): 1229.8 cells per mm^2 and 1499.9 cells per mm^2 and 2072.0 cells per mm^2 and 1218.1 cells per mm^2 and 1088.8 cells per mm^2 and 1181.9 cells per mm^2
- Ki67 positive cells per mm^2 (sebocytes): 3722.1 cells per mm^2 and 4331.9 cells per mm^2 and 3916.9 cells per mm^2 and 3392.4 cells per mm^2 and 4299.5 cells per mm^2 and 2928.2 cells per mm^2
- Erythema mean score on dorsal skin (back skin of Rhino mice): 0.3-1.1
- Scaling mean score on dorsal skin (back skin of Rhino mice): 0.5-1.3
- Increase in epidermis thickness (hyperplasia) (epidermis (back skin)): +188%
- Increase of inflammation of the dermis [2]: +23%
- Thickening of the dorsal skin as compared to the vehicle group (dorsal skin): +14%
